Measurements from patent publication US20140378408A1, “NUCLEOSIDE 5'-PHOSPHOROTHIOATE ANALOGUES AND USES THEREOF” (BAR-ILAN UNIVERSITY, an Israeli University, priority 2012, published 2014).
Read-outs that look alike come from different tables or passages of the source.

Assays:
[1] = Pharmacokinetics and BBB permeation after IV injection in mice; format: in vivo, F1 (C57B×S29) mice
Method: As shown in Example 14, APCPP-γ-S is stable in human blood serum as well as in brain, liver and blood from mice. In this study, we evaluated APCPP-γ-S blood-brain barrier (BBB) permeability and pharmacokinetics in F1 (C57B×S29) mice. APCPP-γ-S was injected intravenously (IV) at 40 mg/Kg into four mice (each mouse was injected with 1.5 mg of APCPP-γ-S). The mice were sacrificed after 30 minutes (2 of the 4) or 90 minutes (thr other 2 of the 4), and samples from brain and blood were taken to analysis. Each sample was collected into 0.5 ml saline, sonicated and extracted with chloroform, applied onto an anion exchange cartridge, and freeze-dried. The resulting residue was analyzed by HPLC. We detected the presence of 67.5 and 64% of the injected amount of APCPP-γ-S in the blood samples after 30 and 90 minutes, respectively. In the brain sample we obtained ca. 2% permeability (data not shown).

[2] = test system: primary neurons; assay: Protection of primary neuron culture against Aβ42 insult (trypan blue count); format: cell-based; details: Primary neuron
Method: Primary neuron cells were cultured in 96 wells plate (95×10^4 per well). After 24 h the cells were treated with 50 μM Aβ42 and various concentrations of APCPP-γ-S (0.04-25 μM) for 48 h. Cell viability was measured by dyeing the cells with trypan blue and counts of the vital cells. The results shown are the mean±S.D of three independent experiments in triplicate (*P<0.05, vs. Aβ42 treatment).
Primary neurons cells were cultured in 96 wells plate (95×10^4 per well). […] Cell viability was measured by dyeing the cells with trypan blue and counts the vital cells. The results shown are the mean±S.D of three independent experiments in triplicate (*P<0.05, **P<0.01 vs. Aβ42 treatment).
In this study, the neuroprotective activity of APCPP-γ-S in neuronal cells exposed to toxic Aβ42 was evaluated. At first we measured the number of the viable neuronal cells after treatment with Aβ42 (5-50 μM) (FIG. 11). At 50 μM Aβ42, 50% of the neuronal culture remained vital. Next, we measured the protective effect of APCPP-γ-S: primary neurons were treated with APCPP-γ-S (0.04-25 μM) and 50 μM Aβ42 for 48 h.

[3] = molecular target: T1, Aβ40-Zn^2+ aggregates (Homo sapiens, UniProt P05067); assay: TEM, size reduction of Aβ40-Zn^2+ aggregates; details: 6 eq, 7 h; aggregates 100 nm to 2.5 μm before
T1 construct: purchased GL-Biochem (Shanghai)
Method: (§1) TEM sample was prepared from 200 μM Aβ-M^2+ 1:1 solution (pH 7.4 or 6.6 for Aβ40-Zn^2+ or Aβ40-Cu^2+, respectively) incubated in a rotary shaker for 9 days at RT. A cloudy mixture with massive sediments was obtained. TEM samples were prepared by diluting the stock solutions with PBS to a concentration of 25 μM with or without APCPP-γ-S. In this way four samples were obtained: (i) 25 μM Aβ40-Cu^2+; (ii) 25 μM Aβ40-Cu^2+ containing 150 μM APCPP-γ-S; (iii) 25 μM Aβ40-Zn^2+; and (iv) 25 μM Aβ40-Zn^2+ containing 150 μm APCPP-γ-S. The mixtures were incubated in a rotary shaker for 7 h and after vortexing, a sample was transferred to a gold grid, for Aβ40-Cu^2+, or a copper grid for Aβ40-Zn^2+. The wet grid was left to dry at RT overnight.
(§2) To validate the DLS data indicating the efficiency of APCPP-γ-S, we monitored the dissolution of Aβ40-M^2+ aggregates in the presence of APCPP-γ-S by TEM. Aβ40-Cu^2+ and Aβ40-Zn^2+ 1:1 complexes were incubated for 9 days at RT, resulting in a significant sediment. Aβ40-Cu^2+ aggregates of 2.5 μm in diameter (FIG. 6A) and Aβ40-Zn^2+ aggregates of different sizes from 100 nm to 2.5 μm (FIG. 6C) were observed by TEM measurements. APCPP-γ-S (6 eq) was then added and the mixture was incubated for 7 h.

[4] = molecular target: T2, Aβ40-Cu^2+ aggregates (Homo sapiens, UniProt P05067); assay: TEM, size reduction of Aβ40-Cu^2+ aggregates; details: 6 eq, 7 h; aggregates 2.5 μm before
T2 construct: purchased GL-Biochem (Shanghai)
Method: as §1, §2

[5] = Affinity to Zn^2+ ions (log K); format: physicochemical
[6] = IV administration to mice, detection in blood by HPLC; format: in vivo
[7] = test system: chondrocytes; assay: Pyrophosphate formed by ATP hydrolysis in the presence of chondrocytes (fluorogenic sensor); format: cell-based, human; details: 8 h, ATP alone 0.46 μM, without chondrocytes 0.26 μM
[8] = molecular target: T3, NPP1 from matrix vesicles (MVs) (Homo sapiens, UniProt P22413); assay: NTMP hydrolysis in matrix vesicles; format: biochemical; details: 0.1 mM, NTMP 0.1 mM, OD 405 nm
T3 construct: Its hydrolysis by endogenous enzyme (NPP1) from matrix vesicles (MVs); from tissue; host or cells: matrix vesicles (MVs)
Method: Increased chondrocyte PPi production, and PPi-generating NPP1 activity are linked with CPPD crystal deposition disease, common in aging and osteoarthritic cartilage. […] Its hydrolysis by endogenous enzyme (NPP1) from matrix vesicles (MVs), human chondrocytes or cartilage pieces results in elevated OD at 405 nm.
In order to test the ability of the NPP1 inhibitor APPCCl2P-α-S (isomer A) to inhibit NTMP hydrolysis in MVs, MVs at 2.6 mg/ml (final concentration) were incubated with 0.1 mM NTMP in 2-[(2-Hydroxy-1,1-bis(hydroxymethyl)ethyl)amino]ethanesulfonic acid (TES; Sigma catalog number T1375), pH 7.37, in the presence or absence of 0.1 mM of said NPP1 inhibitor for 0, 15′, 30′, 1, 2, 4, 8 hours at 37° C. At each time point the reaction was read at 405 nm.

[9] = test system: human chondrocyte cells; assay: Hydrolysis of extracellular ATP in the presence of human chondrocyte culture; format: cell-based; details: 100 μM each, 8 h, ATP alone 56%, without cells 18%
Method: In this study, the metabolic hydrolysis of ATP was evaluated. […] Following incubation, the samples were collected and heated at 80° C. for 15 min and extracted with chloroform, applied onto an anion exchange cartridge, and freeze-dried. The resulting residue was analyzed by HPLC.

[10] = test system: PC12 cells; assay: Stability of nucleotides in PC12 cells

T3 sequence (P22413 whole entry): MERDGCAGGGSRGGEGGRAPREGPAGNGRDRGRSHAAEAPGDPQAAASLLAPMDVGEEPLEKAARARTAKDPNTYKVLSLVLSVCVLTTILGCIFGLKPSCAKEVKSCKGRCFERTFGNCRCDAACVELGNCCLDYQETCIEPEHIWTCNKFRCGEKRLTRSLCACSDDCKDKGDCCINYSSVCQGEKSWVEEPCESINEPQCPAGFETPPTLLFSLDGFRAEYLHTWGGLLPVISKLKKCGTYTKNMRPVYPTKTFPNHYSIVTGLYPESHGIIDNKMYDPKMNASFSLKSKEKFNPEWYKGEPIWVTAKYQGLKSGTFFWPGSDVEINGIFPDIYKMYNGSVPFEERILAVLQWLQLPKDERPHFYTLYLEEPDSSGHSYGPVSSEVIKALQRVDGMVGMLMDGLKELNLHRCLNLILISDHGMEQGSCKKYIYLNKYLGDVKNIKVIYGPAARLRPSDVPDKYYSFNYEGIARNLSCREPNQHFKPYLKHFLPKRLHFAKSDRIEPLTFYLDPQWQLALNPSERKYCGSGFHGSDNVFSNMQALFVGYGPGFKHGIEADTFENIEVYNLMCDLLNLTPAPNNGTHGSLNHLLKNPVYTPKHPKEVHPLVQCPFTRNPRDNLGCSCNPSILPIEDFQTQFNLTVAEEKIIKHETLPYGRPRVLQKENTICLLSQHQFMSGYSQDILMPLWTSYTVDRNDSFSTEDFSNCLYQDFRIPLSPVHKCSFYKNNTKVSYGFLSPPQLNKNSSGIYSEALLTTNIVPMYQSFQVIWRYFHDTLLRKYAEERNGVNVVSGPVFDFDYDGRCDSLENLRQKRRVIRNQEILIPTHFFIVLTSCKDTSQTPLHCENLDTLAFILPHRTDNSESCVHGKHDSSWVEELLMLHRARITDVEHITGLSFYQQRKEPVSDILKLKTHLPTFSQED
T2 sequence (P05067 672-711): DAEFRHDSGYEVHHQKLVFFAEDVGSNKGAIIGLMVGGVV
T1 sequence (P05067 672-711 limits assumed): as the sequence (P05067 672-711) above

For `Nc1ncnc2c1ncn2[C@@H]1O[C@H](COP(=O)(O)CP(=O)(O)OP(O)(O)=S)[C@@H](O)[C@H]1O` [APCPP-γ-S, adenosine 5′-[Pγ-thio]-α,β-methylenetriphosphate], the “injected amount present in blood” value ([1]; IV 40 mg/Kg, after 30 minutes) was 67.5%, the permeability into brain ([1]; IV 40 mg/Kg, brain sample) was “ca. 2%” and the “injected amount present in blood” value ([1]; IV, after 90 minutes) was 64%. For the same compound, the IC50 ([2]; 48 h, read-out: concentration that maintained 50% of neuronal cells) was 200 nM, the IC50 ([2]; read-out: IC50 protection from Aβ42 insult) was 200 nM and the “aggregate size after addition” value [3] was “less than 500 nm”. For the same compound, the “aggregate size after addition” value [4] was “less than 250 nm”.
With `Nc1ncnc2c1ncn2[C@@H]1O[C@H](COP(O)(=S)OP(=O)(O)C(Cl)(Cl)P(=O)(O)O)[C@@H](O)[C@H]1O` (single isomer, unassigned) [APPCCl2P-α-S, adenosine 5′-[Pα-thio]-β,γ-(dichloromethylene)triphosphate] the “log K (Zn^2+)” value [5] was 6.5, the “times higher affinity to Zn^2+ ions as compared to ATP” value [5] was 50 and the “detection in blood after IV administration” value [6] was “could be detected in blood (by HPLC) even after 3 h”.
For `Nc1ncnc2c1ncn2[C@@H]1O[C@H](COP(O)(=S)OP(=O)(O)C(Cl)(Cl)P(=O)(O)O)[C@@H](O)[C@H]1O` (single isomer, unassigned; isomer a) [APPCCl2P-α-S (isomer A), adenosine 5′-[Pα-thio]-β,γ-(dichloromethylene)triphosphate], the “PPi formed on co-application with ATP” value [7] was 0.029 µM, the “inhibition of NTMP hydrolysis in MVs” value [8] was “inhibit the hydrolysis of NTMP” and the “degradation of ATP on co-application” value [9] was 22%.
With `Nc1ncnc2c1ncn2[C@@H]1O[C@H](COP(=O)(O)OP(O)(O)=S)[C@@H](O)[C@H]1O` [ADP-β-S, adenosine 5′-[β-thio]diphosphate, reference compound] the “fold more stable in PC12 cells than parent nucleotide (GDP, ADP)” value [10] was 3 fold.
